System: 677734-321-R-J1-PDC complex spheroid viability
Assay: Anticancer human tumor 677734-321-R-J1-PDC patient-derived soft tissue sarcoma cell line growth inhibition [POLQ]
Conditions: for IC50: curve of first compound; for viability, T/C: stronger effect = lower value
Protocol: Multicellular complex tumor spheroid response to Polymerase (POL) inhibitors (novobiocin, ART-558, RP6685) in combination with a variety of drugs and investigational agents in selected tumor cell lines
The POL inhibitors (novobiocin, ART-558, and RP6685) were evaluated both individually and in combination with standard of care and investigational anticancer small molecules within a complex spheroid model of solid tumors. . Complex spheroids include a stromal component modeled by human endothelial cells (HUVEC) and fibroblasts modeled by human mesenchymal stem cells (MSCs). The concentration ranges selected for each drug and investigational agent were based upon clinically achievable concentrations if the clinical Cmax of the agent was known.
Compounds. The drugs and investigational agents: novobiocin (NSC847541), ART-558 (NSC835418), RP-6685 (NSC848927), peposertib (NSC802822), ceralasertib (NSC780249), elimusertib (NSC800525), camonsertib (NSC841442), AZD-1390 (NSC803789), olaparib (NSC753686), talazoparib (NSC767125), rucaparib (NSC756644), sotorasib (NSC818433), MRTX-1133 (NSC836407), SN-38 (NSC673596), topotecan (NSC609699), epotoside (NSC141540), doxorubicin (NSC123127), gemcitabine (NSC613327), 5-fluorouracil (NSC19893), paclitaxel (NSC125973), vemurafenib (NSC761431), MSA-2 (NSC828583), SN-011 (NSC837082), adavosertib (NSC754352), prexasertib (NSC758257), carboplatin (NSC241240) and oxaliplatin (NSC266046), were obtained from the National Cancer Institute (NCI) Developmental Therapeutics Program Chemical Repository (21). The FDA-approved anticancer drug set is available from the Developmental Therapeutics Program at https://dtp.cancer.gov/organization/dscb/obtaining/. […] The stock solutions were prepared in dimethyl sulfoxide (DMSO, Sigma-Aldrich, St. Louis, MO, cat. D2650), except for the platinum compounds which were prepared in saline (Quality Biological, Gaithersburg, MD, cat. 114-055-101), at 800-fold the tested concentration and stored at -70 degrees C prior to their use. All drugs and investigational agents were tested over a range starting from a high concentration at or near the clinical Cmax and decreasing in half-log increments. If the clinical Cmax for an agent had not been determined, the highest concentration tested was 10 microM, except for SN-38, which was tested at a high concentration of 1 microM.
Cell Culture. All cells were maintained in an incubator at 37 degrees C and 5% CO2 with 95% humidity. The PDC lines were cultured according to standard operating procedures established by the NCI PDMR (https://pdmr.cancer.gov). Table 3 of the manuscript, lists the cell lines along with the number of the three cell types plated to form the mct-spheroids and media for tumor cell growth. After thawing, all PDC lines, except 997537-175-T-J1-PDC and 415267-285-R-J2-PDC, were cultured in Matrigel-coated flasks prepared with a working solution of 1X Ham's F-12 nutrient mix, without supplementation (Thermo Fisher Scientific, cat. 11765054), 100 U/mL penicillin-streptomycin (Thermo Fisher Scientific, cat. 15140122), and 2.5% Matrigel (Corning Inc., Corning, NY, cat. 354248) for the first three passages. The two PDC lines 997537-175-T-J1-PDC and 415267-285-R-J2-PDC were cultured on uncoated flasks. The 857933-349-R-J2-PDC line was cultured in 6C/Colon 1B media containing advanced DMEM/F-12 (Thermo Fisher Scientific, cat. 12634028), 10 mM HEPES (Thermo Fisher Scientific, cat. 15630080), 1X GlutaMAX supplement (Thermo Fisher Scientific, cat. 35050061), 0.1 mg/mL primocin (InvivoGen, San Diego, CA, cat. ant-pm-2), 10% defined fetal bovine serum, heat inactivated (HyClone Laboratories Inc., Logan, UT, cat. SH30070.03HI), 50% L-WRN conditioned media (ATCC, cat. CRL-3276), 1.25 mM N-Acetyl-L-cysteine (Sigma-Aldrich, cat. A9165), 10 mM nicotinamide (Sigma-Aldrich, cat. N0636), 1X B-27 supplement (Thermo Fisher Scientific, cat. 17504044), 1X N-2 supplement (Thermo Fisher Scientific, cat. […]

[1] = second compound 0.0316 µM, first compound 0.0316 µM
[2] = second compound 0.0316 µM, first compound 0.1 µM
[3] = second compound 0.0316 µM, first compound 0.316 µM
[4] = second compound 0.0316 µM, first compound 1 µM
[5] = second compound 0.0316 µM, first compound 3.16 µM
[6] = second compound 0.0316 µM, first compound 10 µM
[7] = second compound 0.1 µM, first compound 0.0316 µM
[8] = second compound 0.1 µM, first compound 0.1 µM
[9] = second compound 0.1 µM, first compound 0.316 µM
[10] = second compound 0.1 µM, first compound 1 µM
[11] = second compound 0.1 µM, first compound 3.16 µM
[12] = second compound 0.1 µM, first compound 10 µM
[13] = second compound 0.316 µM, first compound 0.0316 µM
[14] = second compound 0.316 µM, first compound 0.1 µM
[15] = second compound 0.316 µM, first compound 0.316 µM
[16] = second compound 0.316 µM, first compound 1 µM
[17] = second compound 0.316 µM, first compound 3.16 µM
[18] = second compound 0.316 µM, first compound 10 µM
[19] = second compound 1 µM, first compound 0.0316 µM
[20] = second compound 1 µM, first compound 0.1 µM
[21] = second compound 1 µM, first compound 0.316 µM
[22] = second compound 1 µM, first compound 1 µM
[23] = second compound 1 µM, first compound 3.16 µM
[24] = second compound 1 µM, first compound 10 µM
[25] = second compound 3.16 µM, first compound 0.0316 µM
[26] = second compound 3.16 µM, first compound 0.1 µM
[27] = second compound 3.16 µM, first compound 0.316 µM
[28] = second compound 3.16 µM, first compound 1 µM
[29] = second compound 3.16 µM, first compound 3.16 µM
[30] = second compound 3.16 µM, first compound 10 µM
[31] = second compound 10 µM, first compound 0.0316 µM
[32] = second compound 10 µM, first compound 0.1 µM
[33] = second compound 10 µM, first compound 0.316 µM
[34] = second compound 10 µM, first compound 1 µM
[35] = second compound 10 µM, first compound 3.16 µM
[36] = second compound 10 µM, first compound 10 µM
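Also: spheroids exposed to compounds for one week.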
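For viability, T/C in this document: 100% = vehicle DMSO treated spheroids.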

CCc1cc2c(N3CCc4c(cc(Cn5ccnc5)cc4-c4cn(C)nc4C(F)(F)F)C3=O)ccnc2c(OC)n1 + COC1C(OC(N)=O)C(O)C(Oc2ccc3c(O)c(NC(=O)c4ccc(O)c(CC=C(C)C)c4)c(=O)oc3c2C)OC1(C)C
IC50 (second compound 0.0316 µM): > 10 µM
IC50 (second compound 0.1 µM): > 10 µM
IC50 (second compound 0.316 µM): > 10 µM
IC50 (second compound 1 µM): > 10 µM
IC50 (second compound 3.16 µM): > 10 µM
IC50 (second compound 10 µM): > 10 µM
viability, T/C [1]: 111%
viability, T/C [2]: 108%
viability, T/C [3]: 105%
viability, T/C [4]: 106%
viability, T/C [5]: 88.7%
viability, T/C [6]: 62.5%
viability, T/C [7]: 108%
viability, T/C [8]: 110%
viability, T/C [9]: 109%
viability, T/C [10]: 104%
viability, T/C [11]: 92.2%
viability, T/C [12]: 62.6%
viability, T/C [13]: 117%
viability, T/C [14]: 105%
viability, T/C [15]: 98.4%
viability, T/C [16]: 98.7%
viability, T/C [17]: 84.8%
viability, T/C [18]: 64.6%
viability, T/C [19]: 113%
viability, T/C [20]: 103%
viability, T/C [21]: 96.1%
viability, T/C [22]: 100%
viability, T/C [23]: 83.5%
viability, T/C [24]: 58.6%
viability, T/C [25]: 117%
viability, T/C [26]: 101%
viability, T/C [27]: 108%
viability, T/C [28]: 97.5%
viability, T/C [29]: 93.1%
viability, T/C [30]: 63.6%
viability, T/C [31]: 112%
viability, T/C [32]: 106%
viability, T/C [33]: 109%
viability, T/C [34]: 102%
viability, T/C [35]: 81.6%
viability, T/C [36]: 65%

COc1cc2cc(C(=O)CCC(=O)O)sc2cc1OC + COC1C(OC(N)=O)C(O)C(Oc2ccc3c(O)c(NC(=O)c4ccc(O)c(CC=C(C)C)c4)c(=O)oc3c2C)OC1(C)C
IC50 (second compound 0.0316 µM): > 10 µM
IC50 (second compound 0.1 µM): > 10 µM
IC50 (second compound 0.316 µM): > 10 µM
IC50 (second compound 1 µM): > 10 µM
IC50 (second compound 3.16 µM): > 10 µM
IC50 (second compound 10 µM): > 10 µM
viability, T/C [1]: 104%
viability, T/C [2]: 99.5%
viability, T/C [3]: 103%
viability, T/C [4]: 96.9%
viability, T/C [5]: 105%
viability, T/C [6]: 102%
viability, T/C [7]: 110%
viability, T/C [8]: 99.6%
viability, T/C [9]: 97.5%
viability, T/C [10]: 107%
viability, T/C [11]: 106%
viability, T/C [12]: 102%
viability, T/C [13]: 113%
viability, T/C [14]: 106%
viability, T/C [15]: 98.8%
viability, T/C [16]: 102%
viability, T/C [17]: 111%
viability, T/C [18]: 102%
viability, T/C [19]: 109%
viability, T/C [20]: 102%
viability, T/C [21]: 104%
viability, T/C [22]: 109%
viability, T/C [23]: 105%
viability, T/C [24]: 102%
viability, T/C [25]: 108%
viability, T/C [26]: 104%
viability, T/C [27]: 114%
viability, T/C [28]: 110%
viability, T/C [29]: 109%
viability, T/C [30]: 103%
viability, T/C [31]: 112%
viability, T/C [32]: 101%
viability, T/C [33]: 109%
viability, T/C [34]: 99%
viability, T/C [35]: 111%
viability, T/C [36]: 111%

Source: PubChem BioAssay AID1963842 (Molecular Pharmacology Branch, DTP, NCI, 2024)
